Structures are written as SMILES.

The values that follow come from patent US10227323B2, “Glucosylceramide synthase inhibitors for the treatment of diseases” (BIOMARIN PHARMACEUTICAL INC., priority 2013, dated 2019).

The target in the first experiment is T1, GCS (Canis lupus familiaris, UniProt A0A8I3MXG6).
T1 sequence (A0A8I3MXG6 1-394): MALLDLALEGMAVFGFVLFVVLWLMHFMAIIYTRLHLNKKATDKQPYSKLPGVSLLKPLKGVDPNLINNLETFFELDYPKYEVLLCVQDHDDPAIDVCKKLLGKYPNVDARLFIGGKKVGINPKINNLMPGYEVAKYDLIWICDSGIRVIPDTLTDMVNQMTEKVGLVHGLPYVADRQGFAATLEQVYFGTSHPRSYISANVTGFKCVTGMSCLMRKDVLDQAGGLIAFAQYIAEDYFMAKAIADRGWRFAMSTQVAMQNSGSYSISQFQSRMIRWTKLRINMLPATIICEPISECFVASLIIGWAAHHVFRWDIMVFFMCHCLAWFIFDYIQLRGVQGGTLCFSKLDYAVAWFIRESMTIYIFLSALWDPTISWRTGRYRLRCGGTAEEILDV
Description: Assay 1: GCS Enzymatic Assay (MDCK cell lysate, C6-NBD-Ceramide, LC/MS). The format is biochemical, canine. The conditions noted are these: Table 1; MDCK cell lysate; read-out: IC50 (nM) generated from Assay 1. The method, then:
This assay was modified based on the study by Larsen et al. (J. Lipid Res. 2011, 53, 282). Madin-Darby canine kidney (MDCK) cell lysate was prepared using M-PER Mammalian Protein Extraction Reagent (Thermal Scientific) in the presence of a protease inhibitor cocktail (Roche). Protein concentration was determined using BCA assay kit (Pierce). Sixty micrograms of MDCK cell lysate was incubated with various concentrations of a compound described herein from 0.001 μM-10 μM, respectively, in 100 mM Tris buffer (pH 7.5) containing 10 mM MgCl2, 1 mM dithiothreitol, 1 mM EGTA, 2 mM NAD, 100 μM UDP-glucose, 10 μM C6-NBD-Ceramide (Matreya LLC, Pleasant Gap, Pa.), 35 μM dioleoylphosphatidylcholine and 5 μM sulfatide (Sigma) in a final reaction volume of 100 μL at 37° C. for 1 hour. 0.1% DMSO was used as mock treatment or control. The reaction was terminated by adding 100 μL acetonitrile solution and subjected to LC/MS analysis.
The quantitative analysis of NBD-Ceramide and glucosylceramide was performed on a Shimadzu ultra-fast liquid chromatography (Shimadzu, Japan) coupled with API 4000 triple quadrupole mass spectrometer (Applied Biosystems, Concord, Ontario, Canada). Sample separation was conducted on a Waters Xbridge™ BEH130 C18, 100 mm×4.6 mm i.d, 3.5 μm (Milford, Mass., USA). The mobile phase consisted of water and acetonitrile supplemented with 0.1% formic acid (v/v). The flow rate was 1.0 mL/min. The initial mobile phase was 20% acetonitrile and was ramped in a linear fashion to 50% acetonitrile in 0.4 min. From 0.4 to 1.5 min, the gradient was ramped to 98% acetonitrile, and then was held at […] until 8.0 min. Acetonitrile was reset to 20% in 1.5 min, and maintained until 10.0 min. The total run time was 10.0 min. The MS/MS detection was performed in ESI positive mode. The mass transition of NBD-Ceramide was m/z 576.36→558.40 under the collision energy of 15 V, and the mass transition of glucosylceramide was m/z 738.35→558.40 under 21V collision energy. The cell lysate was diluted with equal volume of acetonitrile. Aliquots of 50 μL diluted samples were added to 1.5 mL tubes, and 100 μL of acetonitrile containing internal standard (100 ng/mL tolbutamide) were added for protein precipitation. The mixture were vortexed and then centrifuged at 13000 rpm for 10 min. 70 μL of supernatant were mixed with 140 μL of H2O and the final solution were injected for LC/MS/MS analysis and IC50's and/or percent inhibitions calculated.
Take `O=C(N[C@H](CN1CCCC1)[C@H](O)c1ccc2c(c1)OCCO2)C(F)(F)c1cc2cc(Cl)ccc2o1` [Compound 11, 2-(5-chlorobenzofuran-2-yl)-N-((1R,2R)-1-(2,3-dihydrobenzo[b][1,4]dioxin-6-yl)-1-hydroxy-3-(pyrrolidin-1-yl)propan-2-yl)-2,2-difluoroacetamide]: the concentration for half-maximal inhibition (IC50) was under 50 nM.
`O=C(N[C@H](CN1CCCC1)[C@@H](O)c1cc2c(cc1F)OCCO2)C(F)(F)C1Cc2ccccc2C1` [Compound 12B, 2-(2,3-dihydro-1H-inden-2-yl)-2,2-difluoro-N-((1S,2R)-1-(7-fluoro-2,3-dihydrobenzo[b][1,4]dioxin-6-yl)-1-hydroxy-3-(pyrrolidin-1-yl)propan-2-yl)acetamide]: the IC50 was in the range of 50 to 5000 nM.
Regarding `O=C(N[C@H](CN1CCCC1)[C@H](O)c1ccc2c(c1)OCCO2)C(F)(F)C1Cc2cc3nccnc3cc2C1` [Compound 13, 2-(7,8-dihydro-6H-cyclopenta[g]quinoxalin-7-yl)-N-((1R,2R)-1-(2,3-dihydrobenzo[b][1,4]dioxin-6-yl)-1-hydroxy-3-(pyrrolidin-1-yl)propan-2-yl)-2,2-difluoroacetamide], the 50% inhibitory concentration (IC50) was 50 to 5000 nM.
The same measure, in the same setting: next, `Cn1c(C(F)(F)C(=O)N[C@H](CN2CCCC2)[C@H](O)c2ccc3c(c2)OCCO3)cc2cc(Cl)ccc21` [Compound 14, 2-(5-chloro-1-methyl-1H-indol-2-yl)-N-((1R,2R)-1-(2,3-dihydrobenzo[b][1,4]dioxin-6-yl)-1-hydroxy-3-(pyrrolidin-1-yl)propan-2-yl)-2,2-difluoroacetamide]: under 50 nM; `O=C(N[C@H](CN1CCCC1)[C@H](O)c1ccc2c(c1)OCCO2)C(F)(F)c1cc2cc(Cl)cc(Cl)c2o1` [Compound 15, 2-(5,7-dichlorobenzofuran-2-yl)-N-((1R,2R)-1-(2,3-dihydrobenzo[b][1,4]dioxin-6-yl)-1-hydroxy-3-(pyrrolidin-1-yl)propan-2-yl)-2,2-difluoroacetamide]: under 50 nM; `O=C(N[C@H](CN1CCCC1)[C@H](O)c1ccc2c(c1)OCCO2)C(F)(F)CCc1cccc(-c2ccccn2)c1` [Compound 16, N-((1R,2R)-1-(2,3-dihydrobenzo[b][1,4]dioxin-6-yl)-1-hydroxy-3-(pyrrolidin-1-yl)propan-2-yl)-2,2-difluoro-4-(3-(pyridin-2-yl)phenyl)butanamide]: under 50 nM.
Same read-out and setting: for `O=C(N[C@H](CN1CCCC1)[C@H](O)c1ccc2c(c1)OCCO2)C(F)(F)Cc1ccc2ccccc2c1` [Compound 17, N-((1R,2R)-1-(2,3-dihydrobenzo[b][1,4]dioxin-6-yl)-1-hydroxy-3-(pyrrolidin-1-yl)propan-2-yl)-2,2-difluoro-3-(naphthalen-2-yl)propanamide] the value was 50 to 5000 nM.
Consider `O=C(N[C@H](CN1CCCC1)[C@H](O)c1ccc2c(c1)OCCO2)C(F)(F)c1cc2c(Cl)c(Cl)ccc2o1` [Compound 19, 2-(4,5-dichlorobenzofuran-2-yl)-N-((1R,2R)-1-(2,3-dihydrobenzo[b][1,4]dioxin-6-yl)-1-hydroxy-3-(pyrrolidin-1-yl)propan-2-yl)-2,2-difluoroacetamide], for which the IC50 is under 50 nM.
For the compound `O=C(N[C@H](CN1CCCC1)[C@H](O)c1ccc2c(c1)OCCO2)C(F)(F)C1Cc2ccc(F)cc2C1` (stereo partly drawn) [Compound 21, N-((1R,2R)-1-(2,3-dihydrobenzo[b][1,4]dioxin-6-yl)-1-hydroxy-3-(pyrrolidin-1-yl)propan-2-yl)-2,2-difluoro-2-(5-fluoro-2,3-dihydro-1H-inden-2-yl)acetamide], the IC50 is under 50 nM.
`O=C(N[C@H](CN1CCCC1)[C@H](O)c1ccc2c(c1)OCCO2)C(F)(F)CCc1ccc2ccccc2c1` [Compound 22, N-((1R,2R)-1-(2,3-dihydrobenzo[b][1,4]dioxin-6-yl)-1-hydroxy-3-(pyrrolidin-1-yl)propan-2-yl)-2,2-difluoro-4-(naphthalen-2-yl)butanamide]: the IC50 is under 50 nM.
On the same count and under the same terms, for `O=C(N[C@H](CN1CCCC1)[C@H](O)c1ccc2c(c1)OCCO2)C(F)(F)c1cc2ccccc2o1` [Compound 23, 2-(benzofuran-2-yl)-N-((1R,2R)-1-(2,3-dihydrobenzo[b][1,4]dioxin-6-yl)-1-hydroxy-3-(pyrrolidin-1-yl)propan-2-yl)-2,2-difluoroacetamide] the value was under 50 nM; for `O=C(N[C@H](CN1CCCC1)[C@H](O)c1ccc2c(c1)OCCO2)C(F)(F)c1cc2cc(F)ccc2o1` [Compound 24, N-((1R,2R)-1-(2,3-dihydrobenzo[b][1,4]dioxin-6-yl)-1-hydroxy-3-(pyrrolidin-1-yl)propan-2-yl)-2,2-difluoro-2-(5-fluorobenzofuran-2-yl)acetamide], under 50 nM.
As to `O=C(N[C@H](CN1CCCC1)[C@H](O)c1ccc2c(c1)OCCO2)C(F)(F)c1cc2cc(F)ccc2s1` [Compound 28, N-((1R,2R)-1-(2,3-dihydrobenzo[b][1,4]dioxin-6-yl)-1-hydroxy-3-(pyrrolidin-1-yl)propan-2-yl)-2,2-difluoro-2-(5-fluorobenzo[b]thiophen-2-yl)acetamide], the IC50 was under 50 nM.
Still for that read-out and setting: next, `O=C(N[C@H](CN1CCCC1)[C@H](O)c1ccc2c(c1)OCCO2)C(F)(F)c1cc2cc(C(F)(F)F)ccc2o1` [Compound 30, N-((1R,2R)-1-(2,3-dihydrobenzo[b][1,4]dioxin-6-yl)-1-hydroxy-3-(pyrrolidin-1-yl)propan-2-yl)-2,2-difluoro-2-(5-(trifluoromethyl)benzofuran-2-yl)acetamide]: under 50 nM.

The same experiment, now with this note: Table 1; values marked *; MDCK cell lysate.
For `O=C(N[C@H](CN1CCCC1)[C@H](O)c1ccc2c(c1)OCCO2)C(F)(F)c1cc2cc(Cl)c(Cl)cc2o1` [Compound 18, 2-(5,6-dichlorobenzofuran-2-yl)-N-((1R,2R)-1-(2,3-dihydrobenzo[b][1,4]dioxin-6-yl)-1-hydroxy-3-(pyrrolidin-1-yl)propan-2-yl)-2,2-difluoroacetamide], the “% inhibition generated from Assay 1” value was “B* (the compound had a % inhibition of greater than or equal to about 3% but less than about 50%)”.
Same read-out and setting: for `O=C(N[C@H](CN1CCCC1)[C@H](O)c1ccc2c(c1)OCCO2)C(F)(F)Cc1cccc(-c2ccccn2)c1` [Compound 20, N-((1R,2R)-1-(2,3-dihydrobenzo[b][1,4]dioxin-6-yl)-1-hydroxy-3-(pyrrolidin-1-yl)propan-2-yl)-2,2-difluoro-3-(3-(pyridin-2-yl)phenyl)propanamide] the value was “B* (the compound had a % inhibition of greater than or equal to about 3% but less than about 50%)”; for `O=C(N[C@H](CN1CCCC1)[C@@H](O)c1ccc2c(c1)OCCO2)C(F)(F)CCc1ccc2ccccc2c1` [Compound 22K, N-((1S,2R)-1-(2,3-dihydrobenzo[b][1,4]dioxin-6-yl)-1-hydroxy-3-(pyrrolidin-1-yl)propan-2-yl)-2,2-difluoro-4-(naphthalen-2-yl)butanamide], “B* (the compound had a % inhibition of greater than or equal to about 3% but less than about 50%)”.
With `O=C(N[C@H](CN1CCCC1)[C@H](O)c1ccc2c(c1)OCCO2)C(F)(F)/C=C/c1ccc(Cl)cc1` [Compound 25, (E)-4-(4-chlorophenyl)-N-((1R,2R)-1-(2,3-dihydrobenzo[b][1,4]dioxin-6-yl)-1-hydroxy-3-(pyrrolidin-1-yl)propan-2-yl)-2,2-difluorobut-3-enamide], the “% inhibition generated from Assay 1” value is “B* (the compound had a % inhibition of greater than or equal to about 3% but less than about 50%)”.
On the same count and under the same terms, for `NC1CC2CCC(C1)N2C[C@@H](NC(=O)C(F)(F)c1cc2cc(Cl)ccc2o1)[C@H](O)c1ccc2c(c1)OCCO2` (stereo partly drawn) [Compound 26, N-((1R,2R)-3-(3-amino-8-azabicyclo[3.2.1]octan-8-yl)-1-(2,3-dihydrobenzo[b][1,4]dioxin-6-yl)-1-hydroxypropan-2-yl)-2-(5-chlorobenzofuran-2-yl)-2,2-difluoroacetamide] the value was “B* (the compound had a % inhibition of greater than or equal to about 3% but less than about 50%)”.

As usually defined, the IC50 is the concentration that gives 50% inhibition.
